Reference: US10376553B2, “Pharmaceutical composition for preventing and treating chronic obstructive lung disease containing, as active ingredient, Magnoliae flos extract, fraction, or active fraction thereof” (KOREA RESEARCH INSTITUTE OF BIOSCIENCE AND BIOTECHNOLOGY, priority 2015, dated 2019)
Where “and” joins values, the source holds several entries; their conditions need not be identical. Equal values may be shown once.

Columns and labels:
Format in all cases: in vivo, C57BL/6N mice
[1] = system: inflammatory cells in the bronchoalveolar lavage fluid; assay: Inflammatory cells in bronchoalveolar lavage fluid of the COPD mouse model (cigarette smoke + LPS); conditions: 10 mg/kg p.o., BALF, vs COPD-induced group
Method: Six-week-old male SPF (specific pathogen-free) C57BL/6N mice (22 to 24 g) were supplied by Koatech (Korea). These animals were fed with a sufficient amount of solid feed (no antibiotics, Samyang Feed Co.) and water until the day of the experiment. They were allowed to adapt for 1 week in a light-dark cycle environment at a temperature of 22±2° C. and a humidity of 55±15%, and then subjected to the experiment.
The animal model was exposed to cigarette smoke to induce chronic obstructive pulmonary disease. 3R4F Kentuchy Reference Cigarettes as standard cigarettes for use to generate cigarette smoke were supplied by University of California (USA). The standard cigarettes contain 9.4 mg of tar, 11 mg of total particle matter (TPM), and 12 mg of carbon monoxide per 1 cigarette. The standard cigarettes were used after harmonization for 48 hours to 72 hours at a temperature of 22±1° C. and a humidity of 60±2%. Further, Cigarette Smoke Generator manufactured by Korea BioLink (Korea) was used for exposure to cigarette smoke. Cigarette smoke was inhaled for 1 hour (8 pcs/hour) for 7 days from 1 hour after oral administration of a sample. 10 μg of LPS (lipopolysaccharide) in PBS 50 μL was injected intranasally to each mouse on the 4th day of the experiment after the mouse was anesthetized with zoletyl 1 hour before the exposure to cigarette smoke. The smoking condition was 8 puffs per 1 standard cigarette (volume: 45 mL, duration: 2 seconds, and interval: 1 time/min).
The active fraction of Magnoliae flos (15, 30 mg/kg) and roflumilast (10 mg/kg) as therapeutic substances were dissolved in 0.5% sodium carboxymethyl cellulose and were orally administered 1 hour before the exposure to cigarette smoke.
The experimental groups were divided into (i) normal control (NC) group; (ii) cigarette smoke+LPS exposure group (COPD); (iii) experimental group administered with roflumilast (ROF) (10 mg/kg, p.o) 1 hour before the exposure to cigarette smoke+LPS; and (iv) experimental group administered with the active fraction of Magnoliae flos (15, 30 mg/kg, p.o; Magnoliae flos 15 and Magnoliae flos 30) 1 hour before the exposure to cigarette smoke+LPS. […] Then, they were administered in the same manner as above.
The bronchial alveolar lavage fluid was separated from the animal model treated with the active fraction and the compounds of Magnoliae flos in <Test Example 6-2> above in the following manner, and the number of inflammatory cells was measured.
Specifically, a mouse sonde was inserted into the bronchial tube, a 1 mL syringe containing 0.7 mL of DPBS (Dulbecco's Phosphate-Buffered Saline) was connected thereto, and DPBS was injected into the lung. The injected DPBS was recovered, and this procedure was repeated twice. The bronchoalveolar lavage fluid separated by DPBS was centrifuged at 1,500 rpm for 15 minutes to make a cell pellet. The supernatant was stored frozen at −70° C. for cytokine analysis. Each cell obtained was suspended in DPBS, attached to a slide glass using a cytospin centrifuge, and Diff-Quik stained. The number of inflammatory cells in each sample was counted through microscopic examination, and the inhibition rate was calculated according to the following Equation 3.
Inhibition rate=(Value of COPD-induced group−value of target substance administered group)×100/(Value of COPD-induced group) [Equation 3]

[2] = system: reactive oxygen species; assay: Production of active oxygen species in BALF of the COPD model (DCF-DA); conditions: 10 mg/kg p.o., vs COPD-induced group
Method: Production of active oxygen species in the bronchoalveolar lavage fluid obtained in <Test Example 6-3> above was confirmed by the following method.
Specifically, the separated BALF (200 μL) was treated to the final concentration of 20 μM of DCF-DA (dihydrodichlorofluorescein diacetate, Sigma-Aldrich, USA), followed by culturing for 30 minutes and measurement using Fluorescence (Molecular Device, USA). The inhibition rate was calculated by Equation 3 above.

[3] = system: IL-6; assay: IL-6 level in BALF of the COPD model (ELISA); conditions: vs COPD-induced group
Method: (§1) Cytokines were measured in the cell supernatant obtained in <Test Example 6-3> above by the following method. Specifically, the levels of IL-6 (R & D System, USA) and TNF-α (BD Bioscience, USA) in the separated BALF were measured by enzyme-linked immuno-sorbent assay (ELISA). Each cytokine analysis was carried out according to the manufacturer's test method.

[4] = system: TNF-α; assay: TNF-α level in BALF of the COPD model (ELISA); conditions: 10 mg/kg p.o., BALF, vs COPD-induced group
Method: as §1

[5] = system: infiltration of inflammatory cells in the lung tissue; assay: Lung tissue histopathology (H&E) in the COPD model; conditions: vs COPD-induced group
Method: Specifically, the lung was taken out and immediately fixed in a 10% formaldehyde solution, which was then sliced and washed with running water for 8 hours. It was then embedded in […] and Hematoxylin & Eosin stained, and the pathological changes in the lung tissue were examined using an optical microscope.

With `O=C(Nc1c(Cl)cncc1Cl)c1ccc(OC(F)F)c(OCC2CC2)c1` [ROF, roflumilast, reference compound] the “Inhibition rate of inflammatory cell infiltration (%) Macrophage” value [1] was 36.9 ± 15.0% and 30.6 ± 9.9%, the “Inhibition rate of inflammatory cell infiltration (%) Neutrophil” value [1] was 31.9 ± 7.6% and 37.4 ± 8.3% and the “Inhibition rate of inflammatory cell infiltration (%) Total inflammatory cells” value [1] was 34.9 ± 4.6% and 39.4 ± 7.2%. For the same compound, the “Active oxygen inhibition rate (%)” value [2] was 25.9 ± 4.3%, the “IL-6 in the bronchoalveolar lavage fluid (in words)” value [3] was “decreased” and the “TNF-α inhibition rate (%)” value [4] was 44.8 ± 3.8% and 30.8 ± 5.9%. For the same compound, the “infiltration of inflammatory cells around the alveoli and bronchi (in words)” value [5] was “reduced”.
